# ChEMBL document CHEMBL1156106 (J Med Chem, 2009)
# How the values were obtained:
# [1] = target: T1, Sodium-dependent serotonin transporter (Homo sapiens, UniProt P31645); assay: Inhibition of [3H]serotonin reuptake at human SERT expressed in HEK293 cells; type: cell-based
# [2] = target: Sodium-dependent noradrenaline transporter (Homo sapiens, UniProt P23975); assay: Displacement of [125I]RTI55 from cloned human NET expressed in HEK293 cells; type: cell-based
# [3] = system: Mus musculus; assay: Antidepressant activity in ip dosed mouse assessed as stimulation of locomotor activity relative to cocaine; type: functional
# [4] = system: Mus musculus; assay: Antidepressant activity in ip dosed mouse assessed as time to reach peak stimulation of locomotor activity; type: functional
# [5] = target: Sodium-dependent dopamine transporter (Homo sapiens, UniProt Q01959); assay: Displacement of [125I]RTI55 from cloned human DAT expressed in HEK293 cells; type: cell-based
# [6] = system: Mus musculus; assay: Antidepressant activity in ip dosed mouse assessed as duration of locomotor activity; type: functional
# [7] = target: T1, Sodium-dependent serotonin transporter; assay: biochemical; type: cell-based, HEK293
# [8] = system: Rattus norvegicus; assay: Effect on behavioural activity in rat assessed as cocaine-induced lever response at 5 mg/kg, ip pretreated with cocaine for 30 mins by drug-discrimination studies; type: functional; settings: route intraperitoneal
# [9] = system: Rattus norvegicus; assay: Effect on behavioural activity in rat assessed as cocaine-induced lever response at 10 mg/kg, po pretreated with cocaine for 90 mins by drug-discrimination studies; type: functional
# [10] = system: Rattus norvegicus; assay: Effect on behavioural activity in rat assessed as cocaine-induced lever response at 2.5 mg/kg, po pretreated with cocaine for 90 mins by drug-discrimination studies; type: functional
# [11] = system: Rattus norvegicus; assay: Effect on behavioural activity in rat assessed as cocaine-induced lever response at 5 mg/kg, po pretreated with cocaine for 360 mins by drug-discrimination studies; type: functional
# [12] = system: Rattus norvegicus; assay: Effect on behavioural activity in rat assessed as cocaine-induced lever response at 25 mg/kg, po pretreated with cocaine for 360 mins by drug-discrimination studies; type: functional
# [13] = system: Rattus norvegicus; assay: Effect on behavioural activity in rat assessed as cocaine-induced lever response at 5 mg/kg, po pretreated with cocaine for 45 mins by drug-discrimination studies; type: functional
# [14] = system: Rattus norvegicus; assay: Effect on behavioural activity in rat assessed as cocaine-induced lever response at 25 mg/kg, po pretreated with cocaine for 180 mins by drug-discrimination studies; type: functional
# [15] = system: Rattus norvegicus; assay: Effect on behavioural activity in rat assessed as cocaine-induced lever response at 2.5 mg/kg, po pretreated with cocaine for 180 mins by drug-discrimination studies; type: functional
# [16] = system: Rattus norvegicus; assay: Effect on behavioural activity in rat assessed as cocaine-induced lever response at 25 mg/kg, po pretreated with cocaine for 90 mins by drug-discrimination studies; type: functional
# [17] = system: Rattus norvegicus; assay: Effect on behavioural activity in rat assessed as cocaine-induced lever response at 5 mg/kg, po pretreated with cocaine for 180 mins by drug-discrimination studies; type: functional
# [18] = system: Rattus norvegicus; assay: Effect on behavioural activity in rat assessed as cocaine-induced lever response at 50 mg/kg, po pretreated with cocaine for 90 mins by drug-discrimination studies; type: functional
# [19] = system: Rattus norvegicus; assay: Effect on behavioural activity in rat assessed as cocaine-induced lever response at 10 mg/kg, po pretreated with cocaine for 45 mins by drug-discrimination studies; type: functional
# [20] = system: Rattus norvegicus; assay: Effect on behavioural activity in rat assessed as cocaine-induced lever response at 50 mg/kg, po pretreated with cocaine for 180 mins by drug-discrimination studies; type: functional
# [21] = system: Rattus norvegicus; assay: Effect on behavioural activity in po dosed rat assessed as cocaine-induced lever response pretreated with cocaine by drug-discrimination studies; type: functional
# [22] = system: Rattus norvegicus; assay: Effect on behavioural activity in rat assessed as cocaine-induced lever response at 10 mg/kg, po pretreated with cocaine for 180 mins by drug-discrimination studies; type: functional
# [23] = system: Rattus norvegicus; assay: Effect on behavioural activity in rat assessed as cocaine-induced lever response at 2.5 mg/kg, po pretreated with cocaine for 45 mins by drug-discrimination studies; type: functional
# [24] = system: Rattus norvegicus; assay: Effect on behavioural activity in rat assessed as cocaine-induced lever response at 50 mg/kg, po pretreated with cocaine for 360 mins by drug-discrimination studies; type: functional
# [25] = system: Rattus norvegicus; assay: Effect on behavioural activity in rat assessed as cocaine-induced lever response at 2.5 mg/kg, ip pretreated with cocaine for 30 mins by drug-discrimination studies; type: functional; settings: route intraperitoneal
# [26] = system: Rattus norvegicus; assay: Effect on behavioural activity in rat assessed as cocaine-induced lever response at 10 mg/kg, po pretreated with cocaine for 360 mins by drug-discrimination studies; type: functional
# [27] = system: Rattus norvegicus; assay: Effect on behavioural activity in rat assessed as cocaine-induced lever response at 25 mg/kg, ip pretreated with cocaine for 30 mins by drug-discrimination studies; type: functional; settings: route intraperitoneal
# [28] = system: Rattus norvegicus; assay: Effect on behavioural activity in rat assessed as cocaine-induced lever response at 50 mg/kg, po pretreated with cocaine for 45 mins by drug-discrimination studies; type: functional
# [29] = system: Rattus norvegicus; assay: Effect on behavioural activity in rat assessed as cocaine-induced lever response at 1 mg/kg, ip pretreated with cocaine for 30 mins by drug-discrimination studies; type: functional; settings: route intraperitoneal
# [30] = system: Rattus norvegicus; assay: Effect on behavioural activity in rat assessed as cocaine-induced lever response at 2.5 mg/kg, po pretreated with cocaine for 360 mins by drug-discrimination studies; type: functional
# [31] = system: Mus musculus; assay: Antidepressant activity in ip dosed mouse assessed as stimulation of locomotor activity; type: functional
# [32] = system: Rattus norvegicus; assay: Effect on behavioural activity in ip dosed rat assessed as cocaine-induced lever response pretreated with cocaine by drug-discrimination studies; type: functional
# [33] = system: Rattus norvegicus; assay: Effect on behavioural activity in rat assessed as cocaine-induced lever response at 25 mg/kg, po pretreated with cocaine for 45 mins by drug-discrimination studies; type: functional
# [34] = system: Rattus norvegicus; assay: Effect on behavioural activity in rat assessed as cocaine-induced lever response at 10 mg/kg, ip pretreated with cocaine for 30 mins by drug-discrimination studies; type: functional; settings: route intraperitoneal
# [35] = system: Rattus norvegicus; assay: Effect on behavioural activity in rat assessed as cocaine-induced lever response at 5 mg/kg, po pretreated with cocaine for 90 mins by drug-discrimination studies; type: functional
# [36] = system: Rattus norvegicus; assay: Effect on behavioural activity in rat assessed as cocaine-induced lever response at 25 mg/kg, ip pretreated with cocaine for 15 mins by drug-discrimination studies; type: functional; settings: route intraperitoneal
# [37] = system: Rattus norvegicus; assay: Effect on behavioural activity in rat assessed as cocaine-induced lever response at 10 mg/kg, ip pretreated with cocaine for 15 mins by drug-discrimination studies; type: functional; settings: route intraperitoneal
# [38] = system: Rattus norvegicus; assay: Effect on behavioural activity in rat assessed as cocaine-induced lever response at 50 mg/kg, ip pretreated with cocaine for 15 mins by drug-discrimination studies; type: functional; settings: route intraperitoneal
# T1 sequence (P31645 whole entry): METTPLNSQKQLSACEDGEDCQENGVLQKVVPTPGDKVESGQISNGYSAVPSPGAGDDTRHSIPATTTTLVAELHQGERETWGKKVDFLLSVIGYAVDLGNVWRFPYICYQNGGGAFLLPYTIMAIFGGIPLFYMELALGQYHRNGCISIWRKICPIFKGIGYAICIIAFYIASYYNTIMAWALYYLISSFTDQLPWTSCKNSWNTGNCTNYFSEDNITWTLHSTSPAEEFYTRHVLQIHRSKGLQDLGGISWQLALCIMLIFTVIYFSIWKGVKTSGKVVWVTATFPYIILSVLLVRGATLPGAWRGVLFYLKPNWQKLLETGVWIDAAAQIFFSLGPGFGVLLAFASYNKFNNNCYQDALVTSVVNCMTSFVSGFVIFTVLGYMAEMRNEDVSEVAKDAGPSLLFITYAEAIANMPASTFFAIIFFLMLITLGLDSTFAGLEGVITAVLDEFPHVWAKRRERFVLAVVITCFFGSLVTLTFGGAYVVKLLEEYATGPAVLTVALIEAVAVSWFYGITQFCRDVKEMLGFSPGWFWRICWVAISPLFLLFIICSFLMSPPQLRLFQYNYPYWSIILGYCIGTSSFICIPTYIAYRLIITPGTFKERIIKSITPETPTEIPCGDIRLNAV
# Chain of Sodium-dependent noradrenaline transporter (P23975 whole entry): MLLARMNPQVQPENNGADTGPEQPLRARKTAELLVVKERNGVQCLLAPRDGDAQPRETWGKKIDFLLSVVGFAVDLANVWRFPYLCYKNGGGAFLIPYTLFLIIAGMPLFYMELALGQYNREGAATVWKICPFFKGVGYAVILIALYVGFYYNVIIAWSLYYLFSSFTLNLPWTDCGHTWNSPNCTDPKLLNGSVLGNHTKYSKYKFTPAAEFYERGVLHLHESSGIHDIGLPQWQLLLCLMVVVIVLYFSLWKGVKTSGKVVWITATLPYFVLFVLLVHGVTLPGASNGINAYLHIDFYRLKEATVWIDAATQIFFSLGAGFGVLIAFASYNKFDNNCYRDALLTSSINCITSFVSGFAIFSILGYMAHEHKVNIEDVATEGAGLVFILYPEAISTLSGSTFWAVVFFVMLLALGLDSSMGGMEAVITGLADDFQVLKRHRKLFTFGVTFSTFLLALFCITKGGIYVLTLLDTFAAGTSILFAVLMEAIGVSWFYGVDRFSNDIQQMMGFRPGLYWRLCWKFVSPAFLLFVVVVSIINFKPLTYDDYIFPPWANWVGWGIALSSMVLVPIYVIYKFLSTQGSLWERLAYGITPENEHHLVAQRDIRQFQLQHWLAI
# Chain of Sodium-dependent dopamine transporter (Q01959 whole entry): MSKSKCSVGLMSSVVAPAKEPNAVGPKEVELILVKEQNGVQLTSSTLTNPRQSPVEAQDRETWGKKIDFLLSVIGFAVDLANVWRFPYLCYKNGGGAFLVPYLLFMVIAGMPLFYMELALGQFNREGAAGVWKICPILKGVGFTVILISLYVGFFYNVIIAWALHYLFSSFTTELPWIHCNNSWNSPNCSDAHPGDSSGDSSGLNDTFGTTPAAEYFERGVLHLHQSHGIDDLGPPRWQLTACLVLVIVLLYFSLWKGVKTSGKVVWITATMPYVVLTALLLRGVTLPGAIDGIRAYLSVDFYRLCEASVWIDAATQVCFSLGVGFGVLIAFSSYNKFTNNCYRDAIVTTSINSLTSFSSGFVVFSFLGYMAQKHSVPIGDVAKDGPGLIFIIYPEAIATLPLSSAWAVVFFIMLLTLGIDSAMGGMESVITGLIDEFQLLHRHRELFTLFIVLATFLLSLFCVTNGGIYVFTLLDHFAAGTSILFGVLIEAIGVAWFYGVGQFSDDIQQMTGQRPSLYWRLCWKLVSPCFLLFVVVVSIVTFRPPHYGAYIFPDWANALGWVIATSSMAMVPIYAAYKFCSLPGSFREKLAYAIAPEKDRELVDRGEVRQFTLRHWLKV
smiles,measurement,setting,value
CC(NC(C)(C)C)C(O)c1ccccc1 (racemic),IC50,[1],1.24 µM
same,Ki,[2],> 10 µM
same,Activity,[3],41%
same,Time to peak locomotor stimulation,[4],150 min
same,Ki,[5],> 10 µM
same,Time,[6],390 min
same,Ki,[7],4 µM
CCC(NC(C)(C)C)C(=O)c1ccc(Cl)c(Cl)c1 (configuration not stated),Activity,[8],16.7%
same,Activity,[9],0%
same,Activity,[10],17%
same,Activity,[11],0%
same,Activity,[12],33%
same,Activity,[3],69%
same,Activity,[13],17%
same,Activity,[14],2%
same,Time to peak locomotor stimulation,[4],0 min
same,Activity,[15],50%
same,Activity,[16],33%
same,Activity,[17],0%
same,Activity,[18],67%
same,Activity,[19],34%
same,Activity,[20],50%
same,ED50,[21],15.2 mg/kg
same,Activity,[22],0%
same,Activity,[23],33%
same,Activity,[24],16%
same,Activity,[25],33.3%
same,Activity,[26],2%
same,Time,[6],60 min
same,Activity,[27],100%
same,Activity,[28],83%
same,Activity,[29],0%
same,Activity,[30],17%
same,ED50,[31],38 mg/kg
same,ED50,[32],6.3 mg/kg
same,Activity,[33],50%
CCCCC(NC(C)(C)C)C(=O)c1cccc(Cl)c1 (configuration not stated),Activity,[8],17.2%
same,Activity,[9],0%
same,Activity,[11],0%
same,Activity,[12],0%
same,Activity,[3],136%
same,Activity,[13],17%
same,Activity,[14],0%
same,Time to peak locomotor stimulation,[4],0 min
same,Activity,[16],0%
same,Activity,[17],26%
same,Activity,[34],66.6%
same,Activity,[18],17%
same,Activity,[19],0%
same,Activity,[20],17%
same,ED50,[21],46.9 mg/kg
same,Activity,[22],29%
same,Activity,[24],0%
same,Activity,[25],0%
same,Activity,[26],0%
same,Time,[6],40 min
same,Activity,[27],100%
same,Activity,[35],0%
same,Activity,[28],83%
same,Ki,[7],> 10 µM
same,ED50,[31],10.2 mg/kg
same,ED50,[32],10 mg/kg
same,Activity,[33],0%
CC(C(=O)c1cccc(Cl)c1)N(C)C(C)(C)C (configuration not stated),Activity,[36],75%
same,Ki,[2],> 10 µM
same,Activity,[3],95%
same,Activity,[37],49.4%
same,Time to peak locomotor stimulation,[4],80 min
same,Time,[6],200 min
same,Ki,[7],> 10 µM
same,ED50,[31],11.7 mg/kg
same,Activity,[38],66.7%
